Consider 16 molecules from patent US10981911B2, “Imidazopyrrolopyridine as inhibitors of the JAK family of kinases” (Janssen Pharmaceutica NV, priority 2016, dated 2021).

What all share (assay type): biochemical
For one test, the target named is JAK2-JH1JH2 (Homo sapiens (Human), UniProt O60674). As to the kind of experiment: Enzymatic inhibition assay (RapidFire HTMS), JAK2. To be noted: 30 μM ATP, 40 μM substrate. From the text:
LC/MS grade Water and Acetonitrile (ACN), were purchased from HoneyWell, Burdick & Jackson (Muskegon, Mich., USA). Dimethylsulfoxide 99.8% (DMSO) and Trifluoroacetic Acid 99.5% (TFA) were purchased from EMD Chemical (Gibbstown, N.J., USA). Adenosine triphosphate (ATP), 4-Morpholinepropanesulfonic acid (MOPS), Magnesium chloride (MgCl2), ethylenediaminetetraacetic acid (EDTA), dithiothreitol (DTT), formic acid >95% (FA) and Tween-20 were purchased from Sigma (St Louis, Mo., USA). 384-well polypropylene plates, Cat #781280 were purchased from Greiner (Monroe, N.C.), RapidFire™ cartridge A C4 Column (Agilent Technologies, Santa Clara, Calif.).
The HTMS experiments were performed in positive ionization mode on a RapidFire 300 instrument (Agilent Technologies, Santa Clara, Calif.), coupled with an ABSiex QTrap 4000 system with an Electrospray Ionization source (RF-MS) (Concord, ON, Canada). […] The entire system was operated using the RapidFire software interfaced with Analyst software for the mass spectrometer.
11-point dosing series were made for each compound by serially diluting 1:3 or 1:4 in DMSO, with point 12 being a DMSO control. From the serial dilution plates, sample was transferred to a 384 wells assay plate (#781280, Greiner, Monroe, N.C.) using Labcyte Echo (Sunnyvale, Calif.), or Biosero ATS (San Diego, Calif.). The compounds were tested in duplicate. Column 12 was used for positive controls, and column 24 contained negative controls with no enzyme added. A compound from our internal collection, with inhibitory activity for JAK isoforms, was used as a reference compound. The final concentration of DMSO was ≤0.25% in a 20 μL reaction. […] The Tyk2 enzyme was pre-incubated with 2 mM ATP for 30 min prior to the reaction initiation. Immediately after the addition of the enzyme to the reaction mixture, the plate was centrifuged at 1000 rpm for 1 minute and incubated at 25° C. for 45 minutes for JAK 3 and 90 minutes for JAK1, JAK2 and Tyk2. The reaction was quenched by the addition of 20 μL of 0.5% TFA containing 0.15 μM of internal standard peptide using Multidrop Combi reagent dispenser (Thermo Scientific, Waltham, Mass.). […] After the quench, the assay plate was centrifuged at 3000 rpm for 3 minutes and sealed with pierceable aluminum foil (Cat #06644-001, Agilent) using a PlateLoc (Agilent Technologies, Santa Clara, Calif.). The plates then were transferred on to the RapidFire for the MS analysis. Compound inhibition was assessed by a decrease of the phosphorylated product levels in sample wells compared to the non-inhibited enzyme reaction.
The sample analysis on the RapidFire was performed using a mobile phase A consisting of Water/TFA/FA (100:0.01:0.1, v/v/v), a mobile phase B consisting of ACN/Water/TFA/FA (80:20:0.01:0.1, v/v/v). […] The samples were aspirated directly from the 384 assay plate and delivered onto RF-MS microscale solid-phase C4 extraction cartridge (Type A). The undesired component such as salt, cofactor, detergent and large protein were washed out and the retained analytes (substrate, product and IS) were coeluted directly onto the ABSiex Qtrap 4000 system.

Another test addresses JAK3-JH1JH2 (Homo sapiens (Human), UniProt P52333). As to the kind of experiment: Enzymatic inhibition assay (RapidFire HTMS), JAK3. To be noted: 150 μM ATP, 40 μM substrate. In short, it runs like this: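 Compounds tested in duplicate over 11-point 1:3 or 1:4 dilution series; no-enzyme wells as negative control. After 45 min at 25 °C, TFA quench with internal standard, and phosphorylated product quantified by RapidFire–QTrap mass spectrometry relative to the uninhibited reaction.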

Another test has as its target Tyk2-JH1JH2 (Homo sapiens (Human), UniProt P29597, C1142A/C936A). As to the kind of experiment: Enzymatic inhibition assay (RapidFire HTMS), Tyk2. To be noted: 50 μM ATP, 200 μM substrate. In short, it runs like this:
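Compounds were tested in duplicate as 11-point 1:3 or 1:4 DMSO dilutions (≤0.25% DMSO final) in 20 μL reactions at 25 °C for 90 min, with Tyk2 pre-incubated 30 min with 2 mM ATP. Reactions were quenched with TFA plus internal standard peptide, and phosphorylated product was quantified by RapidFire C4 SPE–ESI MS.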

The next test concerns the target JAK1-JH1JH2 (Homo sapiens (Human), UniProt P23458). As to the kind of experiment: Enzymatic inhibition assay (RapidFire HTMS), JAK1. To be noted: 12.5 μM ATP, 200 μM substrate; read-out: JAK1-JH2JH1 IC50. In short, it runs like this:
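Quenched with 0.5% TFA plus internal-standard peptide; phosphorylated product quantified by RapidFire C4 SPE–ESI-MS, 11-point 1:3 or 1:4 dilutions in duplicate.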

Sequence of JAK2-JH1JH2 (O60674 532-1132): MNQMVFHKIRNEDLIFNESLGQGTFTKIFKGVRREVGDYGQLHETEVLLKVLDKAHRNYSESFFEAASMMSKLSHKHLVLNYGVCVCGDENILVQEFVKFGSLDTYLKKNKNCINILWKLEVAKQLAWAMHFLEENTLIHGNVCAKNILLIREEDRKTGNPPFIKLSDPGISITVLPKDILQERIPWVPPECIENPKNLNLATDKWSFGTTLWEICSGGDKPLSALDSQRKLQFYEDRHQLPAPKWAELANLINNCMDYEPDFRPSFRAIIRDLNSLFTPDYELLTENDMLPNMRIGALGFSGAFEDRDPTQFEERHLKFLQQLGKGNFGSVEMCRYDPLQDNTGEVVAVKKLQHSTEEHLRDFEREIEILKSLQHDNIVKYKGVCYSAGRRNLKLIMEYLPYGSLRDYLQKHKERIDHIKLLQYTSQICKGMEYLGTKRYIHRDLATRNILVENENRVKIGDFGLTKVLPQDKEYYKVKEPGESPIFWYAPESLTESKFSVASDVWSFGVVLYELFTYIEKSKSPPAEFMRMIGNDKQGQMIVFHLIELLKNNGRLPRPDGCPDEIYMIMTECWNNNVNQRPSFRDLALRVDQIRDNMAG
Sequence of JAK1-JH1JH2 (P23458 574-1154): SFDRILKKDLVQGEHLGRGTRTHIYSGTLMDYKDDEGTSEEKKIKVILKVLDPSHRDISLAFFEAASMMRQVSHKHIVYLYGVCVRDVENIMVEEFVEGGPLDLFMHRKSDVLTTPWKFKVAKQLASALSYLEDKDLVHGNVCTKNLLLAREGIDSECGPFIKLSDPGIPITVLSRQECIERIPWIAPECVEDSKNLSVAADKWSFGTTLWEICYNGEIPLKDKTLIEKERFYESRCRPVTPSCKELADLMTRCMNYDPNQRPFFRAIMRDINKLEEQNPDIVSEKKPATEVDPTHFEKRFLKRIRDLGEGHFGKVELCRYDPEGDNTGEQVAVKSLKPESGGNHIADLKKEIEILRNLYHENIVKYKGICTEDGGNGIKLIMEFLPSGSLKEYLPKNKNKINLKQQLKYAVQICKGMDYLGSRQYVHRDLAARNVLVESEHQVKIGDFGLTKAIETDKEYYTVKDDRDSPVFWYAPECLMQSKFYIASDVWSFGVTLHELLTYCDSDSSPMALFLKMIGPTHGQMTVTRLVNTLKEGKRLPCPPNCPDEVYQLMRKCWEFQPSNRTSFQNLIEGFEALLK
Sequence of JAK3-JH1JH2 (P52333 512-1124): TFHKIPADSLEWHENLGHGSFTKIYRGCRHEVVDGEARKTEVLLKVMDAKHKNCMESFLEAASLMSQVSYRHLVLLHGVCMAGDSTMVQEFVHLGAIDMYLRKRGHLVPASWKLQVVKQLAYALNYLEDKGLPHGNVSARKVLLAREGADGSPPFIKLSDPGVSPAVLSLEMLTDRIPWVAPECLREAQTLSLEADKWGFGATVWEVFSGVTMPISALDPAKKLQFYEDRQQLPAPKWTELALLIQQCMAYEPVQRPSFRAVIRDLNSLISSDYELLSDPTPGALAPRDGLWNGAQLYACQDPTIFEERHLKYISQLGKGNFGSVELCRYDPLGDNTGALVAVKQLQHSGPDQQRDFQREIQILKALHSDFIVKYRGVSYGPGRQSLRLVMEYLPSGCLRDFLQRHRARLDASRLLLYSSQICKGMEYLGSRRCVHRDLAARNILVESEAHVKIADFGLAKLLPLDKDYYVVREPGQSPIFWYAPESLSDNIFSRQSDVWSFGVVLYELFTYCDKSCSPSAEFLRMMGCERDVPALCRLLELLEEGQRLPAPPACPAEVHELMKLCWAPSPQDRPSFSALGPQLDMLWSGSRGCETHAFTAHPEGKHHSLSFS
Sequence of Tyk2-JH1JH2 (P29597 580-1182 C936A/C1142A): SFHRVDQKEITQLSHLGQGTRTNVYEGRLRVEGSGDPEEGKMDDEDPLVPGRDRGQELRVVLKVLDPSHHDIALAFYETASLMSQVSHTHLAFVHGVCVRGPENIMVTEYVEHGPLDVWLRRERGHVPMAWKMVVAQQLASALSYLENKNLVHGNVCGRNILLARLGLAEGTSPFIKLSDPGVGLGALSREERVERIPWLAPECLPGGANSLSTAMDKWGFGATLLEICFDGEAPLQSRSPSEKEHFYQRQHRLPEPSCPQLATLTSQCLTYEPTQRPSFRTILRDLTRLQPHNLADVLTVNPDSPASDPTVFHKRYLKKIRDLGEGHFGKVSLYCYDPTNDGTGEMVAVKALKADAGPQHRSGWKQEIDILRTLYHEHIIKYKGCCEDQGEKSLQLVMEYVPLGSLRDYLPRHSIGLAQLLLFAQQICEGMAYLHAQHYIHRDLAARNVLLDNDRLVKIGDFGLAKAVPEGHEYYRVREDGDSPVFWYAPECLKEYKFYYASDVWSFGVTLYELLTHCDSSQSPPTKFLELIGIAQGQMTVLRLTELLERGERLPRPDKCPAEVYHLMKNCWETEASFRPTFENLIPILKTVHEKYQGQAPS

With `N#CC[C@H]1CC[C@H](n2c(CC(=O)NCc3ncc[nH]3)nc3cnc4[nH]ccc4c32)CC1` [Ex. 36, N-((1H-imidazol-2-yl)methyl)-2-(1-((1r,4r)-4-(cyanomethyl)cyclohexyl)-1,6-dihydroimidazo[4,5-d]pyrrolo[2,3-b]pyridin-2-yl)acetamide], the IC50 (usually the concentration at which inhibition is half-maximal) against JAK2-JH1JH2 came out at 0.8 nM; against JAK3-JH1JH2, 12 nM; at Tyk2-JH1JH2, 2.2 nM; on JAK1-JH1JH2, 0.2 nM.
For `N#CC[C@H]1CC[C@H](n2c(CC(=O)N[C@H]3C[C@H](O)C3)nc3cnc4[nH]ccc4c32)CC1` [Ex. 37, 2-(1-((1r,4r)-4-(Cyanomethyl)cyclohexyl)-1,6-dihydroimidazo[4,5-d]pyrrolo[2,3-b]pyridin-2-yl)-N-((1R,3R)-3-hydroxycyclobutyl)acetamide], in that order: 4.6 nM, 38.8 nM, 4.3 nM and 0.2 nM.
For `N#CC[C@H]1CC[C@H](n2c(CC(=O)NCc3ccc(C#N)cc3)nc3cnc4[nH]ccc4c32)CC1` [Ex. 39, N-(4-Cyanobenzyl)-2-(1-((1r,4r)-4-(cyanomethyl)cyclohexyl)-1,6-dihydroimidazo[4,5-d]pyrrolo[2,3-b]pyridin-2-yl)acetamide], in that order: 5.3 nM, 142 nM, 10 nM and 0.2 nM.
For `N#CC[C@H]1CC[C@H](n2c(CNC(N)=O)nc3cnc4[nH]ccc4c32)CC1` [Ex. 40, 1-((1-((1r,4r)-4-(Cyanomethyl)cyclohexyl)-1,6-dihydroimidazo[4,5-d]pyrrolo[2,3-b]pyridin-2-yl)methyl)urea], in that order: 1 nM, 47 nM, 0.3 nM and less than 0.2 nM.
Take `N#CC[C@H]1CC[C@H](n2c(Cc3cscn3)nc3cnc4[nH]ccc4c32)CC1` [Ex. 41, 2-((1r,4r)-4-(2-(Thiazol-4-ylmethyl)imidazo[4,5-d]pyrrolo[2,3-b]pyridin-1(6H)-yl)cyclohexyl)acetonitrile]: the IC50 against JAK2-JH1JH2 was 0.4 nM; against JAK3-JH1JH2, 19.9 nM; on Tyk2-JH1JH2, 0.6 nM; at JAK1-JH1JH2 it was less than 0.2 nM.
On the same counts, the results for `N#CC[C@H]1CC[C@H](n2c(CC(=O)N3CC[C@H](O)C3)nc3cnc4[nH]ccc4c32)CC1` [Ex. 42, 2-((1S,4r)-4-(2-(2-((S)-3-Hydroxypyrrolidin-1-yl)-2-oxoethyl)imidazo[4,5-d]pyrrolo[2,3-b]pyridin-1(6H)-yl)cyclohexyl)acetonitrile] are 24.4 nM, 439 nM, 7.8 nM and 0.2 nM.
On the same counts, the results for `N#CC[C@H]1CC[C@H](n2c(CC(=O)NCCOc3ccncc3)nc3cnc4[nH]ccc4c32)CC1` [Ex. 43, 2-(1-((1r,4r)-4-(Cyanomethyl)cyclohexyl)-1,6-dihydroimidazo[4,5-d]pyrrolo[2,3-b]pyridin-2-yl)-N-(2-(pyridin-4-yloxy)ethyl)acetamide] are 5.1 nM, 87.4 nM, 5.7 nM and 0.2 nM.
For `CC(C)(C)CNC(=O)Cc1nc2cnc3[nH]ccc3c2n1[C@H]1CC[C@H](CC#N)CC1` [Ex. 44, 2-(1-((1r,4r)-4-(Cyanomethyl)cyclohexyl)-1,6-dihydroimidazo[4,5-d]pyrrolo[2,3-b]pyridin-2-yl)-N-neopentylacetamide], in that order: 5.4 nM, 52.3 nM, 6 nM and 0.2 nM.
Regarding `N#CC[C@H]1CC[C@H](n2c(CC(=O)NCc3ccc(F)cc3)nc3cnc4[nH]ccc4c32)CC1` [Ex. 45, 2-(1-((1r,4r)-4-(Cyanomethyl)cyclohexyl)-1,6-dihydroimidazo[4,5-d]pyrrolo[2,3-b]pyridin-2-yl)-N-(4-fluorobenzyl)acetamide], the IC50 on JAK2-JH1JH2 came out at 6.1 nM; at JAK3-JH1JH2 it was 183 nM; against Tyk2-JH1JH2, 12.2 nM; at JAK1-JH1JH2, 0.2 nM.
`N#CC[C@H]1CC[C@H](n2c(CNC(=O)Oc3ccccc3)nc3cnc4[nH]ccc4c32)CC1` [Ex. 46, Phenyl ((1-((1r,4r)-4-(cyanomethyl)cyclohexyl)-1,6-dihydroimidazo[4,5-d]pyrrolo[2,3-b]pyridin-2-yl)methyl)carbamate]: the IC50 on JAK2-JH1JH2 was 14.5 nM; against JAK3-JH1JH2 it was 214 nM; against Tyk2-JH1JH2, 5.5 nM; on JAK1-JH1JH2, 0.2 nM.
For `N#CC[C@H]1CC[C@H](n2c(CC(=O)N[C@H]3CC[C@@H](O)CC3)nc3cnc4[nH]ccc4c32)CC1` [Ex. 47, 2-(1-((1r,4r)-4-(Cyanomethyl)cyclohexyl)-1,6-dihydroimidazo[4,5-d]pyrrolo[2,3-b]pyridin-2-yl)-N-((1S,4S)-4-hydroxycyclohexyl)acetamide], in that order: 2.3 nM, 38.9 nM, 5.1 nM and 0.2 nM.
For `N#CC[C@H]1CC[C@H](n2c(CC(=O)N3CCCC3)nc3cnc4[nH]ccc4c32)CC1` [Ex. 49, 2-((1r,4r)-4-(2-(2-Oxo-2-(pyrrolidin-1-yl)ethyl)imidazo[4,5-d]pyrrolo[2,3-b]pyridin-1(6H)-yl)cyclohexyl)acetonitrile], in that order: 43.5 nM, 249 nM, 4.2 nM and 0.2 nM.
For `N#CC[C@H]1CC[C@H](n2c(C(=O)N3CCC(O)(c4ccccc4)C3)nc3cnc4[nH]ccc4c32)CC1` (stereo partly shown) [Ex. 50, 2-((1r,4r)-4-(2-(3-Hydroxy-3-phenylpyrrolidine-1-carbonyl)imidazo[4,5-d]pyrrolo[2,3-b]pyridin-1(6H)-yl)cyclohexyl)acetonitrile], in that order: 4 nM, 99.9 nM, 21 nM and 0.2 nM.
Consider `N#CC[C@H]1CC[C@H](n2c(-c3cnc(N)nc3)nc3cnc4[nH]ccc4c32)CC1` [Ex. 51, 2-((1r,4r)-4-(2-(2-Aminopyrimidin-5-yl)imidazo[4,5-d]pyrrolo[2,3-b]pyridin-1(6H)-yl)cyclohexyl)acetonitrile], for which the IC50 against JAK2-JH1JH2 turned out to be 3.2 nM; against JAK3-JH1JH2, 127 nM; against Tyk2-JH1JH2, 5.8 nM; on JAK1-JH1JH2, 0.2 nM.
On the same counts, the results for `N#CC[C@H]1CC[C@H](n2c(-c3ccnc(N)n3)nc3cnc4[nH]ccc4c32)CC1` [Ex. 53, 2-((1r,4r)-4-(2-(2-Aminopyrimidin-4-yl)imidazo[4,5-d]pyrrolo[2,3-b]pyridin-1(6H)-yl)cyclohexyl)acetonitrile] are 3.2 nM, 61.8 nM, 9 nM and 0.2 nM.
On to `N#CC[C@H]1CC[C@H](n2c(CC(=O)NC34CCC(C(N)=O)(CC3)C4)nc3cnc4[nH]ccc4c32)CC1` [Ex. 54, 4-(2-(1-((1r,4r)-4-(Cyanomethyl)cyclohexyl)-1,6-dihydroimidazo[4,5-d]pyrrolo[2,3-b]pyridin-2-yl)acetamido)bicyclo[2.2.1]heptane-1-carboxamide], for which the IC50 is 2.1 nM on JAK2-JH1JH2, 42 nM against JAK3-JH1JH2, 4.2 nM at Tyk2-JH1JH2 and 0.2 nM on JAK1-JH1JH2.
